Laboratory results taken from US11957759B1, “Rapidly accelerated fibrosarcoma (RAF) degrading compounds and associated methods of use” (Arvinas Operations, Inc., priority 2022, dated 2024).

Key:
B-RAF G466V = molecular target: T1, B-RAF G466V (Homo sapiens, UniProt P15056, G466V); experiment: Target protein degradation, assay D: T-Rex 293 cells, HA-BRAF_G466V, 384 well format; format: cell-based; conditions: T-Rex 293 HA-BRAF_G466V cells, 24 hours, Examples 83-269; for Dmax: T-REx-293, Assay D
T1 construct: expressed in transfected cells; host or cells: T-Rex 293 cells (Invitrogen #R71007)
T1 sequence (P15056 whole entry G466V): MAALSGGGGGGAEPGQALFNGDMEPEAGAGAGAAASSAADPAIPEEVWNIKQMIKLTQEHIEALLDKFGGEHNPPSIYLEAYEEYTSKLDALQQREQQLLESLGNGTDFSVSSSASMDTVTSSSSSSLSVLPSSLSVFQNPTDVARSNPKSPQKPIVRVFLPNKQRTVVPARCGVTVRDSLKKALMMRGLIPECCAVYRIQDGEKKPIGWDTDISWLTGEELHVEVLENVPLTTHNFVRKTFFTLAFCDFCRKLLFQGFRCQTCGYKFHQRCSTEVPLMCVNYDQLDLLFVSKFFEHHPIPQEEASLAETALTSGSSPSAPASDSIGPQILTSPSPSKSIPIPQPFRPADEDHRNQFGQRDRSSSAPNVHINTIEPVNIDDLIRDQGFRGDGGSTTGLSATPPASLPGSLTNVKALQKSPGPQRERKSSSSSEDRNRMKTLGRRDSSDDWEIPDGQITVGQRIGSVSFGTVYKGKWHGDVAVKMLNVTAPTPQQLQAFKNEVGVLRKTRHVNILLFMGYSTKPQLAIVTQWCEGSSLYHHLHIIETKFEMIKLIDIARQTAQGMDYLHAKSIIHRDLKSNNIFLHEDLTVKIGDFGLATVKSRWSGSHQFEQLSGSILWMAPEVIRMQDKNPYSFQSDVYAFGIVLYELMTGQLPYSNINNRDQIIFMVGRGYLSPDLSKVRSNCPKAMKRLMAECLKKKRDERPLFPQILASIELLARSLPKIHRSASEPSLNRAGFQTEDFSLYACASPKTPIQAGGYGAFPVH
In short: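 Degradation measured by high-content imaging of anti-HA immunofluorescence in fixed T-Rex 293 cells carrying inducible HA-BRAF G466V (1 ng/mL doxycycline), after 24 h PROTAC exposure at 37 °C over 300 nM–5 pM (1:3, 11 points, 0.5% DMSO). Outputs DC50 and Dmax as % of control; nuclei counts against DMSO wells gauge toxicity.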

B-RAF V600E = molecular target: T2, B-RAF V600E (Homo sapiens, UniProt P15056, V600E); experiment: Target protein degradation, assay C: T-Rex 293 cells, HA-BRAF_V600E, 384 well format; format: cell-based; conditions: T-Rex 293 HA-BRAF_V600E cells, 24 hours, Examples 83-269; for DC50: Assay C; for Dmax: T-REx-293, Assay C
T2 construct: expressed in transfected cells; host or cells: T-Rex 293 cells (Invitrogen #R71007)
T2 sequence (P15056 whole entry V600E): as the sequence (P15056 whole entry G466V) above, with V466G, V600E counted along it
In short: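 After 24 h exposure to an 11-point 1:3 series (300 nM–5 pM, 0.5% DMSO), fixed T-Rex 293 cells carrying HA-BRAF V600E (induced with 1 ng/mL doxycycline) were stained anti-HA and imaged. DC50 and Dmax were derived from BRAF intensity relative to control, and cytotoxicity from nuclear counts.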

Compound	DC50 (B-RAF G466V; Assay D)	DC50 (B-RAF V600E)	Dmax (B-RAF V600E)	Dmax (B-RAF G466V)	B-RAF G466V DMax (%) (B-RAF G466V; Assay D)
N#Cc1c(NS(=O)(=O)N2CC[C@@H](F)C2)ccc(F)c1Oc1ccc2ncn(-c3ccc(N4CCC(CC5CCCN5c5ccc6c(c5)C(=O)N(C5CCC(=O)NC5=O)C6=O)CC4)nc3)c(=O)c2c1 (stereo partly drawn) [Example 160, (3R)-N-{2-cyano-3-[(3-{6-[4-({1-[2-(2,6-dioxopiperidin-3-yl)-1,3-dioxo-2,3-dihydro-1H-isoindol-5-yl]pyrrolidin-2-yl}methyl)piperidin-1-yl]pyridin-3-yl}-4-oxo-3,4-dihydroquinazolin-6-yl)oxy]-4-fluorophenyl}-3-fluoropyrrolidine-1-sulfonamide]	> 30 nM	50 to 500 nM	≤ 35%		
N#Cc1c(NS(=O)(=O)N2CC[C@@H](F)C2)ccc(F)c1Oc1ccc2ncn(-c3ccc(N4CCN(c5ccc6c(c5)C(=O)N(C5CCC(=O)NC5=O)C6=O)CC4)nc3)c(=O)c2c1 (stereo partly drawn) [Example 161, (3R)-N-(2-cyano-3-{[3-(6-{4-[2-(2,6-dioxopiperidin-3-yl)-1,3-dioxo-2,3-dihydro-1H-isoindol-5-yl]piperazin-1-yl}pyridin-3-yl)-4-oxo-3,4-dihydroquinazolin-6-yl]oxy}-4-fluorophenyl)-3-fluoropyrrolidine-1-sulfonamide]	1 to 10 nM	50 to 500 nM	35 to 70%	≤ 35%	
N#Cc1c(NS(=O)(=O)N2CC[C@@H](F)C2)ccc(F)c1Oc1ccc2ncn(-c3ccc(N4CCN(c5ccc(C(=O)NC6CCC(=O)NC6=O)c(F)c5)CC4)nc3)c(=O)c2c1 (stereo partly drawn) [Example 162, 4-[4-(5-{6-[2-cyano-6-fluoro-3-({[(3R)-3-fluoropyrrolidin-1-yl]sulfonyl}amino)phenoxy]-4-oxo-3,4-dihydroquinazolin-3-yl}pyridin-2-yl)piperazin-1-yl]-N-(2,6-dioxopiperidin-3-yl)-2-fluorobenzamide]	≤ 1 nM	5 to 50 nM	35 to 70%	≤ 35%	
N#Cc1c(NS(=O)(=O)N2CC[C@@H](F)C2)ccc(F)c1Oc1ccc2ncn(-c3ccc(N4CCC(CCN5CCN(c6ccc7c(c6)C(=O)N(C6CCC(=O)NC6=O)C7=O)CC5)CC4)nc3)c(=O)c2c1 (stereo partly drawn) [Example 163, (3R)-N-{2-cyano-3-[(3-{6-[4-(2-{4-[2-(2,6-dioxopiperidin-3-yl)-1,3-dioxo-2,3-dihydro-1H-isoindol-5-yl]piperazin-1-yl}ethyl)piperidin-1-yl]pyridin-3-yl}-4-oxo-3,4-dihydroquinazolin-6-yl)oxy]-4-fluorophenyl}-3-fluoropyrrolidine-1-sulfonamide]	10 to 30 nM	50 to 500 nM	35 to 70%	≤ 35%	
N#Cc1c(NS(=O)(=O)N2CC[C@@H](F)C2)ccc(F)c1Oc1ccc2ncn(-c3ccc(N4CCN(CCCOc5ccc6c(c5)C(=O)N(C5CCC(=O)NC5=O)C6=O)CC4)nc3)c(=O)c2c1 (stereo partly drawn) [Example 164, (3R)-N-{2-cyano-3-[(3-{6-[4-(3-{[2-(2,6-dioxopiperidin-3-yl)-1,3-dioxo-2,3-dihydro-1H-isoindol-5-yl]oxy}propyl)piperazin--1-yl]pyridin-3-yl}-4-oxo-3,4-dihydroquinazolin-6-yl)oxy]-4-fluorophenyl}-3-fluoropyrrolidine-1-sulfonamide]	≤ 1 nM	50 to 500 nM	35 to 70%	≤ 35%	
N#Cc1c(NS(=O)(=O)N2CC[C@@H](F)C2)ccc(F)c1Oc1ccc2ncn(-c3ccc(N4CCC5(CC4)CN(c4cccc6c4CN(C4CCC(=O)NC4=O)C6=O)C5)nc3)c(=O)c2c1 (stereo partly drawn) [Example 165, (3R)-N-(2-cyano-3-{[3-(6-{2-[2-(2,6-dioxopiperidin-3-yl)-1-oxo-2,3-dihydro-1H-isoindol-4-yl]-2,7-diazaspiro[3.5]nonan-7-yl}pyridin-3-yl)-4-oxo-3,4-dihydroquinazolin-6-yl]oxy}-4-fluorophenyl)-3-fluoropyrrolidine-1-sulfonamide]	> 30 nM	≤ 5 nM	≤ 35%	≤ 35%	
CN(CC1CCN(c2ccc(-n3cnc4ccc(Oc5c(F)ccc(NS(=O)(=O)N6CC[C@@H](F)C6)c5C#N)cc4c3=O)cn2)CC1)[C@H]1C[C@H](Oc2ccc3c(c2)C(=O)N([C@@H]2CCC(=O)NC2=O)C3=O)C1 [Example 166, (3R)-N-{2-cyano-4-fluoro-3-[(3-{6-[4-({methyl[(1r,3r)-3-{[2-(2,6-dioxopiperidin-3-yl)-1,3-dioxo-2,3-dihydro-1H-isoindol-5-yl]oxy}cyclobutyl]amino}methyl)piperidin-1-yl]pyridin-3-yl}-4-oxo-3,4-dihydroquinazolin-6-yl)oxy]phenyl}-3-fluoropyrrolidine-1-sulfonamide]	1 to 10 nM	> 500 nM			C (C ≤ 35)
N#Cc1c(NS(=O)(=O)N2CC[C@@H](F)C2)ccc(F)c1Oc1ccc2ncn(-c3ccc(N4CCC(CCCN5CCN(c6ccc7c(c6)C(=O)N(C6CCC(=O)NC6=O)C7=O)CC5)CC4)nc3)c(=O)c2c1 (stereo partly drawn) [Example 167, (3R)-N-{2-cyano-3-[(3-{6-[4-(3-{4-[2-(2,6-dioxopiperidin-3-yl)-1,3-dioxo-2,3-dihydro-1H-isoindol-5-yl]piperazin-1-yl}propyl)piperidin-1-yl]pyridin-3-yl}-4-oxo-3,4-dihydroquinazolin-6-yl)oxy]-4-fluorophenyl}-3-fluoropyrrolidine-1-sulfonamide]	1 to 10 nM	50 to 500 nM	35 to 70%	≤ 35%	

More lines, main results first:

DC50 (B-RAF G466V; Assay D)	DC50 (B-RAF V600E)	Dmax (B-RAF V600E)	Dmax (B-RAF G466V)	Compound	B-RAF G466V DMax (%) (B-RAF G466V; Assay D)
10 to 30 nM	50 to 500 nM	≤ 35%	35 to 70%	N#Cc1c(NS(=O)(=O)N2CC[C@@H](F)C2)ccc(F)c1Oc1ccc2ncn(-c3ccc(N4CCN(c5cc(N6CCN(c7ccc8c(c7)C(=O)N(C7CCC(=O)NC7=O)C8=O)CC6)ncn5)CC4)nc3)c(=O)c2c1 (stereo partly drawn) [Example 168, (3R)-N-{2-cyano-3-[(3-(6-[4-(6-{4-[2-(2,6-dioxopiperidin-3-yl)-1,3-dioxo-2,3-dihydro-1H-isoindol-5-yl]piperazin-1-yl}pyrimidin-4-yl)piperazin-1-yl]pyridin-3-yl}-4-oxo-3,4-dihydroquinazolin-6-yl)oxy]-4-fluorophenyl}-3-fluoropyrrolidine-1-sulfonamide]	
1 to 10 nM	50 to 500 nM	35 to 70%	≤ 35%	N#Cc1c(NS(=O)(=O)N2CC[C@@H](F)C2)ccc(F)c1Oc1ccc2ncn(-c3ccc(N4CCC(CN5CCC6(CC5)CN(c5cccc7c5CN(C5CCC(=O)NC5=O)C7=O)C6)CC4)nc3)c(=O)c2c1 (stereo partly drawn) [Example 169, (3R)-N-{2-cyano-3-[(3-{6-[4-({2-[2-(2,6-dioxopiperidin-3-yl)-1-oxo-2,3-dihydro-1H-isoindol-4-yl]-2,7-diazaspiro[3.5]nonan-7-yl}methyl)piperidin-1-yl]pyridin-3-yl}-4-oxo-3,4-dihydroquinazolin-6-yl)oxy]-4-fluorophenyl}-3-fluoropyrrolidine-1-sulfonamide]	
1 to 10 nM	5 to 50 nM	≤ 35%	≤ 35%	N#Cc1c(NS(=O)(=O)N2CC[C@@H](F)C2)ccc(F)c1Oc1ccc2ncn(-c3ccc(N4CC(CN5CCN(C6CCN(c7ccc8c(c7)C(=O)N(C7CCC(=O)NC7=O)C8=O)CC6)CC5)C4)nc3)c(=O)c2c1 (stereo partly drawn) [Example 170, (3R)-N-(2-cyano-3-{[3-(6-{3-[(4-{1-[2-(2,6-dioxopiperidin-3-yl)-1,3-dioxo-2,3-dihydro-1H-isoindol-5-yl]piperidin-4-yl}piperazin-1-yl)methyl]azetidin-1-yl}pyridin-3-yl)-4-oxo-3,4-dihydroquinazolin-6-yl]oxy}-4-fluorophenyl)-3-fluoropyrrolidine-1-sulfonamide]	
1 to 10 nM	50 to 500 nM	35 to 70%	35 to 70%	N#Cc1c(NS(=O)(=O)N2CC[C@@H](F)C2)ccc(F)c1Oc1ccc2ncn(-c3ccc(N4CCC(CN5CC6(C5)CN(c5ccc7c(c5)C(=O)N(C5CCC(=O)NC5=O)C7=O)C6)CC4)nc3)c(=O)c2c1 (stereo partly drawn) [Example 171, (3R)-N-{2-cyano-3-[(3-{6-[4-({6-[2-(2,6-dioxopiperidin-3-yl)-1,3-dioxo-2,3-dihydro-1H-isoindol-5-yl]-2,6-diazaspiro[3.3]heptan-2-yl}methyl)piperidin-1-yl]pyridin-3-yl}-4-oxo-3,4-dihydroquinazolin-6-yl)oxy]-4-fluorophenyl}-3-fluoropyrrolidine-1-sulfonamide]	
1 to 10 nM	50 to 500 nM	≤ 35%	≤ 35%	N#Cc1c(NS(=O)(=O)N2CC[C@@H](F)C2)ccc(F)c1Oc1ccc2ncn(-c3ccc(N4CC5(CN(CC6CCN(c7ccc8c(c7)C(=O)N(C7CCC(=O)NC7=O)C8=O)CC6)C5)C4)nc3)c(=O)c2c1 (stereo partly drawn) [Example 172, (3R)-N-{2-cyano-3-[(3-{6-[6-({1-[2-(2,6-dioxopiperidin-3-yl)-1,3-dioxo-2,3-dihydro-1H-isoindol-5-yl]piperidin-4-yl}methyl)-2,6-diazaspiro[3.3]heptan-2-yl]pyridin-3-yl}-4-oxo-3,4-dihydroquinazolin-6-yl)oxy]-4-fluorophenyl}-3-fluoropyrrolidine-1-sulfonamide]	
